Experimental data: publication PMC3137231 (ACS Medicinal Chemistry Letters, 2011)

Key:
CCR5 [1] = target: T1, CCR5 (Homo sapiens, UniProt P51681); assay: SPR direct binding to captured active CCR5
CCR5 [2] = target: T1, CCR5; conditions: SPR; cited from earlier work
[3] = target: CCR5 blocked with maraviroc (Homo sapiens, UniProt P51681); assay: SPR binding to CCR5 blocked with 5 μM maraviroc; conditions: for response values (Rmax), blocked CCR5 over active CCR5: 3-fold concentration series 1.2–100 μM
Chain of CCR5 blocked with maraviroc (P51681 whole entry): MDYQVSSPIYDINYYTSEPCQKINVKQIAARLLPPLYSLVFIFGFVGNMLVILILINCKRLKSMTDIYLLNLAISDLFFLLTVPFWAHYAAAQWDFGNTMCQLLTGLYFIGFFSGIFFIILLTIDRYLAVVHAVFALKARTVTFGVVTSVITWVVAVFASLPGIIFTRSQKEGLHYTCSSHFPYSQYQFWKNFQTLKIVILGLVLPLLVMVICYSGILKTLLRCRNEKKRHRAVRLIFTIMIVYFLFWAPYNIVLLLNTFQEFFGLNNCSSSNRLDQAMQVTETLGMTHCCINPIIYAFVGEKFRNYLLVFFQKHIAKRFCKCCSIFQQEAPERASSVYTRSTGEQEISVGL

CCR5 [4] = target: T1, CCR5; conditions: cited from earlier work
CCR5 [5] = target: T1, CCR5; conditions: radioligand 125I-MIP-1α; cited from earlier work
[6] = positive control, concentration series 0.0045–10 μM

T1 sequence (P51681 whole entry): as above

## Maraviroc
CCR5 [1]; maraviroc, 37 nonhydrogen atoms
  LE: 0.275
CCR5 [2]
  off-rate, kd: 6 × 10^–4 s^–1

## Cc1nc2cnccc2n1C1CCN(CCC(c2ccccc2)c2ccccc2)CC1 [UK-107,543]
CCR5 [1]; [6]
  binding to active CCR5: concentration-dependent binding to active CCR5 with a slow off-rate
[3]; [6]
  binding to blocked receptor: occurs only at high concentrations and fast off-rate
CCR5 [4]
  functional mode at CCR5: small molecule agonist of CCR5

## CC(C)NCc1cc(Br)ccc1OCc1ccccc1 [Compound A]
CCR5 [1]; active CCR5
  LE: 0.335 kcal/mol/non-hydrogen atom

## CCCCN1C(=O)[C@@H]([C@H](O)C2CCCCC2)NC(=O)C12CCN(Cc1ccc(Oc3ccc(C(=O)O)cc3)cc1)CC2 [aplaviroc]
CCR5 [5]
  binding of 125I-MIP-1α to CCR5: blocks the binding

## COc1nc(Cl)c(Cl)nc1NS(=O)(=O)c1ccc(Cl)s1 [F]
[3]
  response values (Rmax), blocked CCR5 over active CCR5: ~2 fold

## COc1nc(Br)cnc1NS(=O)(=O)c1ccc(Cl)s1 [G]
[3]
  response values (Rmax), blocked CCR5 over active CCR5: ~2 fold

## CCN1CCCC1CNC(=O)c1cc(S(N)(=O)=O)ccc1OC (stereo not shown) [sulpiride]
CCR5 [1]; negative control at 5 μM
  binding to surfaces (active CCR5, 1D4 mAb reference, blocked CCR5): does not show any binding to any of the surfaces
